Values quoted from earlier work, collected in US20260110003A1 (Solugen, Inc., priority 2022, published 2026).

B1: ZmPDC: Zymomonas mobilis pyruvate decarboxylase (protein, UniProt P06672 1-568, looked up)
Pyruvate decarboxylase: MSYTVGTYLAERLVQIGLKHHFAVAGDYNLVLLDNLLLNKNMEQVYCCNELNCGFSAEGYARAKGAAAAVVTYSVGALSAFDAIGGAYAENLPVILISGAPNNNDHAAGHVLHHALGKTDYHYQLEMAKNITAAAEAIYTPEEAPAKIDHVIKTALREKKPVYLEIACNIASMPCAAPGPASALFNDEASDEASLNAAVEETLKFIANRDKVAVLVGSKLRAAGAEEAAVKFADALGGAVATMAAAKSFFPEENPHYIGTSWGEVSYPGVEKTMKEADAVIALAPVFNDYSTTGWTDIPDPKKLVLAEPRSVVVNGIRFPSVHLKDYLTRLAQKVSKKTGALDFFKSLNAGELKKAAPADPSAPLVNAEIARQVEALLTPNTTVIAETGDSWFNAQRMKLPNGARVEYEMQWGHIGWSVPAAFGYAVGAPERRNILMVGDGSFQLTAQEVAQMVRLKLPVIIFLINNYGYTIEVMIHDGPYNNIKNWDYAGLMEVFNGNGGYDSGAGKGLKAKTGGELAEAIKVALANTDGPTLIECFIGREDCTEELVKWGKRVAAANSRKPVNKLL

What was measured:
[1] = for Prefers Phase: aqueous (Aq) or organic (Org) phase in the MPER; for LogP: partition coefficient, <0 preference for aqueous, >0 for organic
[2] = relative to VvSucA

Row | Molecule | Prefers Phase [1] | LogP [1] | more acetoin produced than VvSucA [2] [%]
1 | CC=O [Acetaldehyde] | Aq | −0.34 | 
2 | CCO [Ethanol] | Both |  | 
3 | CCOC(=O)C(C)=O [Ethyl Pyruvate] | Org | 0.4 | 
4 | CC(=O)C(=O)O [Pyruvate ion] | Aq | <<0 | 
5 | CC(=O)C(=O)O [Pyruvic Acid] | Aq | −0.3 | 
6 | B1 |  |  | 57
